In paper PMC8070564, “Synthesis and Antiviral Activity of Camphene Derivatives against Different Types of Viruses” (Molecules, 2021):
Where two headings read alike, the source gives them in different places.

Key:
[1] = system: rVSV-ΔG-Gn-Gc; experiment: microbe, parasite or virus in culture; assay type: cell-based, Hantaan virus strain 76–118; conditions: Orthohantavirus hantanense, HEK-293T, read-out: IC50 rVSV-ΔG-Gn-Gc
[2] = in vitro; conditions: African green monkey
[3] = in vitro; conditions: human
[4] = system: EBOV (strain Zaire); experiment: microbe, parasite or virus in culture; assay type: cell-based, Ebola virus (EBOV); conditions: for IC50: read-out: IC50 EBOV
[5] = system: rVSV-ΔG-G; experiment: microbe, parasite or virus in culture; assay type: cell-based; conditions: Vesicular stomatitis virus, HEK-293T, read-out: IC50 VSV-G
[6] = Cytotoxicity in HEK293T cells (Table 5); conditions: human
[7] = system: rVSV-ΔG-EboV-GP; experiment: microbe, parasite or virus in culture; assay type: cell-based, Ebola pseudotype viruses; conditions: Zaire ebolavirus, HEK-293T, read-out: IC50 EboV-GP
[8] = system: rVSV-ΔG-MarV-GP; experiment: organism not typed; assay type: cell-based, Marburg pseudotype viruses; conditions: HEK-293T, read-out: IC50 MarV-GP
[9] = in vitro; conditions: dog
[10] = system: influenza virus A/Puerto Rico/8/34 (H1N1); experiment: microbe, parasite or virus in culture; assay type: cell-based; conditions: H1N1, MDCK, read-out: IC50 H1N1
[11] = in vitro; conditions: African green monkey; remark: listed apart in the source
[12] = system: vaccinia virus (strain Copenhagen); experiment: microbe, parasite or virus in culture; assay type: cell-based; conditions: Orthopoxvirus vaccinia, Vero, read-out: IC50 VV
[13] = system: influenza virus A/Puerto Rico/8/34 (H1N1); conditions: cited from earlier work
[14] = system: vaccinia virus (VV); conditions: cited from earlier work
[15] = system: Marburg virus (MARV) (strain Popp); conditions: cited from earlier work
[16] = system: Ebola virus (EBOV) (strain Zaire); conditions: cited from earlier work

Row | SMILES | CC50 [3] [µM] | IC50 [7] [µM] | IC50 [8] [µM] | CC50 [9] [µM] | IC50 [10] [µM] | CC50 [11] [µM] | also measured
1 | CC1(C)[C@@H]2CC[C@@]1(C)[C@H](OCCN1CCCC1)C2 (racemic) [Compound 2a, (±)-1-(2-(1,7,7-Trimethylbicyclo(2.2.1)heptan-2-yloxy)ethyl)pyrrolidine] | 497 ± 8 | 0.12 ± 0.04 | 73.6 ± 1.9 | > 1190 | 45.3 ± 5.2 |  | IC50 [1]: 9.1 ± 1.2 µM; CC50 [2]: 231 ± 16.5 µM; IC50 ([4]; Zaire ebolavirus, Vero): 18.3 ± 3.1 µM; IC50 [5]: 123 ± 4 µM; CC50 [6]: 358 ± 27.8 µM
2 | CC1(C)[C@@H]2CC[C@@]1(C)[C@H](OCCN1CCCCC1)C2 (racemic) [Compound 3a, (±)-1-(2-(1,7,7-Trimethylbicyclo(2.2.1)heptan-2-yloxy)ethyl)piperidine] | 942 ± 18.8 | 6.3 ± 0.3 |  | > 1130 | 64.8 ± 5.9 |  | IC50 [1]: 5 ± 0.8 µM; CC50 [2]: 55.9 ± 12.2 µM; IC50 ([4]; Zaire ebolavirus, Vero): 15.2 ± 2.1 µM; IC50 [5]: 942 ± 18.8 µM; CC50 [6]: 151 ± 18.8 µM
3 | CC1(C)[C@@H]2CC[C@@]1(C)[C@H](OCCCN1CCCCC1)C2 (racemic) [Compound 3b, (±)-1-(3-(1,7,7-Trimethylbicyclo(2.2.1)heptan-2-yloxy)propyl)piperidine] | 2120 ± 49.2 | 473 ± 11.4 | 170 ± 3.8 | 950 ± 52.5 | 347 ± 41.1 | 140 ± 8.7 | IC50 [5]: 946 ± 22.7 µM
4 | CC1CCN(CCO[C@@H]2C[C@H]3CC[C@]2(C)C3(C)C)CC1 (racemic) [Compound 4a, (±)-4-Methyl-1-(2-(1,7,7-trimethylbicyclo(2.2.1)]heptan-2-yloxy)ethyl)piperidine] | 447 ± 10.7 | 1.3 ± 0.1 | 60.8 ± 1.8 | > 1070 | 37.9 ± 5.6 |  | IC50 EBOV [4]: did not show antiviral activity; IC50 [5]: 111 ± 3.6 µM
5 | CC1CCN(CCCO[C@@H]2C[C@H]3CC[C@]2(C)C3(C)C)CC1 (racemic) [Compound 4b, (±)-4-Methyl-1-(3-(1,7,7-trimethylbicyclo(2.2.1)heptan-2-yloxy)propyl)piperidine] | 141 ± 3.4 |  | 96.1 ± 3.4 | 491 ± 32.2 | 69.7 ± 8.4 | 40.9 ± 2.7 | 
6 | CN1CCN(CCO[C@@H]2C[C@H]3CC[C@]2(C)C3(C)C)CC1 (racemic) [Compound 5a, (±)-1-Methyl-4-(2-(1,7,7-trimethylbicyclo(2.2.1)heptan-2-yloxy)ethyl)piperazine] | 653 ± 14.3 |  | 85.6 ± 1.8 | 28.5 ± 1.2 | 13.2 ± 2 | 100 ± 6.1 | 
7 | CN1CCN(CCCO[C@@H]2C[C@H]3CC[C@]2(C)C3(C)C)CC1 (racemic) [Compound 5b, (±)-1-Methyl-4-(3-(1,7,7-trimethylbicyclo(2.2.1)heptan-2-yloxy)propyl)piperazine] | 109 ± 3.4 |  |  | 51 ± 4.1 | > 37.4 | 64.2 ± 3.1 | 
8 | CC1(C)[C@@H]2CC[C@@]1(C)[C@H](OCCN1CCN(Cc3ccccc3)CC1)C2 (racemic) [Compound 6a, (±)-1-Benzyl-4-(2-(1,7,7-trimethylbicyclo(2.2.1)heptan-2-yloxy)ethyl)piperazine] | 575 ± 11.2 |  |  | 33.7 ± 2.8 | 3.4 ± 0.5 | 14 ± 1.7 | 
9 | CC1(C)[C@@H]2CC[C@@]1(C)[C@H](OCCCN1CCN(Cc3ccccc3)CC1)C2 (racemic) [Compound 6b, (±)-1-Benzyl-4-(3-(1,7,7-trimethylbicyclo(2.2.1)heptan-2-yloxy)propyl)piperazine] | 148 ± 5.4 | 67.5 ± 2.7 | 124 ± 2.7 | 10.8 ± 0.8 | > 8 | 21.3 ± 2.2 | 
10 | CC1(C)[C@@H]2CC[C@@]1(C)[C@H](OCCN1CCOCC1)C2 (racemic) [Compound 7a, (±)-4-(2-(1,7,7-Trimethylbicyclo(2.2.1)heptan-2-yloxy)ethyl)morpholine] | 860 ± 22.4 | 0.6 ± 0.2 | 150 ± 3.7 | 385 ± 19.7 | 252 ± 31.1 |  | IC50 [1]: 14.8 ± 1.9 µM; IC50 ([4]; Zaire ebolavirus, Vero): 5.63 µM; IC50 [4]: 5.6 ± 0.9 µM; IC50 [5]: 935 ± 26.2 µM; CC50 [6]: 1160 ± 56.1 µM
11 | CC1(C)[C@@H]2CC[C@@]1(C)[C@H](OCCCN1CCOCC1)C2 (racemic) [Compound 7b, (±)-4-(3-(1,7,7-trimethylbicyclo(2.2.1)heptan-2-yloxy)propyl)morpholine] | 1440 ± 28.4 |  |  | 562 ± 48.2 | 24.2 ± 3.1 | 174 ± 11.9 | 
12 | CC1(C)[C@@H]2CC[C@@]1(C)[C@H](OCCN1CCCCCC1)C2 (racemic) [Compound 8a, (±)-1-(2-(1,7,7-Trimethylbicyclo(2.2.1)heptan-2-yloxy)ethyl)azepane] | 721 ± 14.4 | 112 ± 3.6 | 90.2 ± 3.6 | 50.5 ± 4.5 | 35.3 ± 5 | 19.1 ± 2.5 | IC50 [5]: 361 ± 10.8 µM
13 | CC1(C)[C@@H]2CC[C@@]1(C)[C@H](OCCCN1CCCCCC1)C2 (racemic) [Compound 8b, (±)-1-(3-((1,7,7-Trimethylbicyclo(2.2.1)heptan-2-yloxy)propyl)azepane] | 704 ± 10.3 |  |  | 374 ± 22.8 | 320 ± 36.9 | 23.7 ± 2.7 | 
14 | Nc1ccn(C[C@@H](CO)OCP(=O)(O)O)c(=O)n1 [Cidofovir, reference compound] |  |  |  |  |  | 475 ± 30.1 | IC50 [12]: 40 ± 1.2 µM
15 | CC1(C)[C@H]2CC[C@]1(C)[C@H](OC(=O)CCN1CCCCC1)C2 [Ia] |  |  |  |  |  |  | IC50 [13]: 7.8 µM; IC50 [14]: 121 µM; IC50 [15]: 3.7 µM; IC50 [16]: 47.5 µM
16 | CC1CCN(CCC(=O)O[C@@H]2C[C@@H]3CC[C@@]2(C)C3(C)C)CC1 [Ib] |  |  |  |  |  |  | IC50 [13]: 15.3 µM; IC50 [15]: 2.2 µM; IC50 [16]: 54.3 µM
17 | CN1CCN(CCC(=O)O[C@@H]2C[C@@H]3CC[C@@]2(C)C3(C)C)CC1 [Ic] |  |  |  |  |  |  | IC50 [13]: 1.9 µM; IC50 [14]: 64.8 µM
18 | CC1(C)[C@H]2CC[C@]1(C)[C@H](OC(=O)CCN1CCOCC1)C2 [Id] |  |  |  |  |  |  | IC50 [13]: 12.2 µM; IC50 [14]: 3.4 µM
19 | NC(=O)c1ncn([C@@H]2O[C@H](CO)[C@@H](O)[C@H]2O)n1 [Ribavirin, reference compound] |  |  |  | > 2000 | 24.6 ± 3.7 |  | 
20 | CC(N)C12CC3CC(CC(C3)C1)C2 (stereo not drawn) [Rimantadine, reference compound] |  |  |  | 335 ± 27 | 67 ± 4.9 |  | 
21 | O=C(NN1C(=O)[C@@H]2[C@@H]3C=C[C@@H]([C@H]4C[C@@H]34)[C@@H]2C1=O)c1ccc(C(F)(F)F)cc1 [ST-246, reference compound] |  |  |  |  |  | 1280 ± 202 | IC50 [12]: 0.01 ± 0.003 µM
22 | CN[C@H]1CC[C@@H](c2ccc(Cl)c(Cl)c2)c2ccccc21 [Sertraline, sertraline, reference compound] | 408 ± 35.9 |  |  |  |  |  | 
